Assay results from PubChem BioAssay (NCI).
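These data come from cells grown in 96-well plates and exposed to compound for 48 hours at five concentrations. At the GI50, growth is halved. TGI: concentration producing complete growth inhibition.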

Experiments:
Experiment in all cases: DTP human tumour cell line panel, 48 h
RXF 393 renal = tested on: RXF 393 renal
NCI-H460 lung = tested on: NCI-H460 lung
K-562 leukemia = tested on: K-562 leukemia
LOX IMVI melanoma = tested on: LOX IMVI melanoma
MDA-MB-435 = tested on: MDA-MB-435
OVCAR-5 ovarian = tested on: OVCAR-5 ovarian
IGROV1 ovarian = tested on: IGROV1 ovarian
T-47D breast = tested on: T-47D breast
M14 melanoma = tested on: M14 melanoma
MOLT-4 leukemia = tested on: MOLT-4 leukemia
UO-31 renal = tested on: UO-31 renal
MCF7 breast = tested on: MCF7 breast
SF-268 CNS = tested on: SF-268 CNS
MDA-MB-231 breast = tested on: MDA-MB-231 breast
NCI-H23 lung = tested on: NCI-H23 lung
UACC-62 melanoma = tested on: UACC-62 melanoma
HCT-116 colon = tested on: HCT-116 colon
DU-145 prostate = tested on: DU-145 prostate
HL-60(TB) leukemia = tested on: HL-60(TB) leukemia
SF-539 CNS = tested on: SF-539 CNS
SK-OV-3 ovarian = tested on: SK-OV-3 ovarian
OVCAR-4 ovarian = tested on: OVCAR-4 ovarian
OVCAR-8 ovarian = tested on: OVCAR-8 ovarian
SK-MEL-28 melanoma = tested on: SK-MEL-28 melanoma
NCI-H522 lung = tested on: NCI-H522 lung
OVCAR-3 ovarian = tested on: OVCAR-3 ovarian
MALME-3M melanoma = tested on: MALME-3M melanoma
A498 renal = tested on: A498 renal
SN12C renal = tested on: SN12C renal
HCC-2998 colon = tested on: HCC-2998 colon
SF-295 CNS = tested on: SF-295 CNS
NCI-H226 lung = tested on: NCI-H226 lung
U251 CNS = tested on: U251 CNS
SK-MEL-5 melanoma = tested on: SK-MEL-5 melanoma
HCT-15 colon = tested on: HCT-15 colon
SR leukemia = tested on: SR leukemia
SW-620 colon = tested on: SW-620 colon
SNB-19 CNS = tested on: SNB-19 CNS
A549 NSCLC = tested on: A549 NSCLC
KM12 colon = tested on: KM12 colon
TK-10 renal = tested on: TK-10 renal
NCI/ADR-RES ovarian = tested on: NCI/ADR-RES ovarian
HOP-62 NSCLC = tested on: HOP-62 NSCLC
ACHN renal = tested on: ACHN renal
CAKI-1 renal = tested on: CAKI-1 renal
UACC-257 melanoma = tested on: UACC-257 melanoma
HOP-92 NSCLC = tested on: HOP-92 NSCLC
CCRF-CEM leukemia = tested on: CCRF-CEM leukemia
HT29 colon = tested on: HT29 colon
SK-MEL-2 melanoma = tested on: SK-MEL-2 melanoma
COLO 205 colon = tested on: COLO 205 colon
HS 578T breast = tested on: HS 578T breast
PC-3 prostate = tested on: PC-3 prostate
RPMI-8226 leukemia = tested on: RPMI-8226 leukemia
BT-549 breast = tested on: BT-549 breast
786-0 renal = tested on: 786-0 renal

Cc1ccc(Cl)c(Nc2ccccc2C(=O)O)c1Cl
GI50 (RXF 393 renal): 19.8 µM
TGI (RXF 393 renal): 46.8 µM
GI50 (NCI-H460 lung): 25.9 µM
TGI (NCI-H460 lung): 69.4 µM
GI50 (K-562 leukemia): 33.2 µM
TGI (K-562 leukemia): > 100 µM
GI50 (LOX IMVI melanoma): 18.7 µM
TGI (LOX IMVI melanoma): 44.9 µM
GI50 (MDA-MB-435): 23.8 µM
TGI (MDA-MB-435): 85.3 µM
GI50 (OVCAR-5 ovarian): 31.9 µM
TGI (OVCAR-5 ovarian): 98.9 µM
GI50 (IGROV1 ovarian): 32.3 µM
TGI (IGROV1 ovarian): 93.4 µM
GI50 (T-47D breast): 33.4 µM
TGI (T-47D breast): > 100 µM
GI50 (M14 melanoma): 21.3 µM
TGI (M14 melanoma): 62.6 µM
GI50 (MOLT-4 leukemia): 29.9 µM
TGI (MOLT-4 leukemia): 83.9 µM
GI50 (UO-31 renal): 19.3 µM
TGI (UO-31 renal): 45.5 µM
GI50 (MCF7 breast): 34.2 µM
TGI (MCF7 breast): > 100 µM
GI50 (SF-268 CNS): 31.8 µM
TGI (SF-268 CNS): > 100 µM
GI50 (MDA-MB-231 breast): 32.1 µM
TGI (MDA-MB-231 breast): > 100 µM
GI50 (NCI-H23 lung): 21.6 µM
TGI (NCI-H23 lung): 51.4 µM
GI50 (UACC-62 melanoma): 16.3 µM
TGI (UACC-62 melanoma): 32.7 µM
GI50 (HCT-116 colon): 19.6 µM
TGI (HCT-116 colon): 44.9 µM
GI50 (DU-145 prostate): 28.9 µM
TGI (DU-145 prostate): 71.8 µM
GI50 (HL-60(TB) leukemia): 22.7 µM
TGI (HL-60(TB) leukemia): 51.4 µM
GI50 (SF-539 CNS): 23.6 µM
TGI (SF-539 CNS): 51.3 µM
GI50 (SK-OV-3 ovarian): 26 µM
TGI (SK-OV-3 ovarian): 65 µM
GI50 (OVCAR-4 ovarian): 29.9 µM
TGI (OVCAR-4 ovarian): 94.6 µM
GI50 (OVCAR-8 ovarian): 29.6 µM
TGI (OVCAR-8 ovarian): > 100 µM
GI50 (SK-MEL-28 melanoma): 30.5 µM
TGI (SK-MEL-28 melanoma): 89 µM
GI50 (NCI-H522 lung): 28.3 µM
TGI (NCI-H522 lung): 87.2 µM
GI50 (OVCAR-3 ovarian): 20.3 µM
TGI (OVCAR-3 ovarian): 37.9 µM
GI50 (MALME-3M melanoma): 23.1 µM
TGI (MALME-3M melanoma): 63.4 µM
GI50 (A498 renal): 22.2 µM
TGI (A498 renal): 87.4 µM
GI50 (SN12C renal): 30.7 µM
TGI (SN12C renal): > 100 µM
GI50 (HCC-2998 colon): 26.6 µM
TGI (HCC-2998 colon): 66.4 µM
GI50 (SF-295 CNS): 25.3 µM
TGI (SF-295 CNS): 76 µM
GI50 (NCI-H226 lung): 28 µM
TGI (NCI-H226 lung): 82.4 µM
GI50 (U251 CNS): 26 µM
TGI (U251 CNS): 82.4 µM
GI50 (SK-MEL-5 melanoma): 18.2 µM
TGI (SK-MEL-5 melanoma): 33.5 µM
GI50 (HCT-15 colon): 22.7 µM
TGI (HCT-15 colon): 54.2 µM
GI50 (SR leukemia): 25.4 µM
TGI (SR leukemia): 78.1 µM
GI50 (SW-620 colon): 34.4 µM
TGI (SW-620 colon): > 100 µM
GI50 (SNB-19 CNS): 35 µM
TGI (SNB-19 CNS): > 100 µM
GI50 (A549 NSCLC): 30.4 µM
TGI (A549 NSCLC): > 100 µM
GI50 (KM12 colon): 29.3 µM
TGI (KM12 colon): 77.1 µM
GI50 (TK-10 renal): 29.2 µM
TGI (TK-10 renal): 86 µM
GI50 (NCI/ADR-RES ovarian): 26.3 µM
TGI (NCI/ADR-RES ovarian): 80.9 µM
GI50 (HOP-62 NSCLC): 31.3 µM
TGI (HOP-62 NSCLC): > 100 µM
GI50 (ACHN renal): 32.7 µM
TGI (ACHN renal): > 100 µM
GI50 (CAKI-1 renal): 34.6 µM
TGI (CAKI-1 renal): > 100 µM
GI50 (UACC-257 melanoma): 27.4 µM
TGI (UACC-257 melanoma): > 100 µM
GI50 (HOP-92 NSCLC): 16.2 µM
TGI (HOP-92 NSCLC): 50 µM
GI50 (CCRF-CEM leukemia): 25.5 µM
TGI (CCRF-CEM leukemia): 90.1 µM
GI50 (HT29 colon): 35.6 µM
TGI (HT29 colon): > 100 µM
GI50 (SK-MEL-2 melanoma): 26.3 µM
TGI (SK-MEL-2 melanoma): 76 µM
GI50 (COLO 205 colon): 22.2 µM
TGI (COLO 205 colon): 43 µM
GI50 (HS 578T breast): 25.7 µM
TGI (HS 578T breast): > 100 µM
GI50 (PC-3 prostate): 29.9 µM
TGI (PC-3 prostate): > 100 µM
GI50 (RPMI-8226 leukemia): 26.6 µM
TGI (RPMI-8226 leukemia): 80.5 µM
GI50 (BT-549 breast): 21.7 µM
TGI (BT-549 breast): 60.1 µM
GI50 (786-0 renal): 23 µM
TGI (786-0 renal): 64.3 µM
